The text below walks through data of ChEMBL document CHEMBL6115029, “Discovery of Daraxonrasib (RMC-6236), a Potent and Orally Bioavailable RAS(ON) Multi-selective, Noncovalent Tri-complex Inhibitor for the Treatment of Patients with Multiple RAS-Addicted Cancers” (J Med Chem, 2025).

Structures are written as SMILES. Active and inactive are the calls of the source. The calls are words filed in the database; no cut-off is given here. Some results are limits rather than exact numbers.

The nature of series [1]: Inhibition of 6His-tagged KRAS G12V mutant(1 to 169 residues)/GST-tagged GMPPNP-bound BRAF RBD (155 to 229 reisudes)/Cyclophilin A (unknown origin) tri-complex protein-protein interaction incubated for 3 hrs by TR-FERT based disruption assay. The arrangement: species or system Homo sapiens.
For a further series, the system named is ASPC1. Put plainly: Cytotoxicity against human ASPC1 cells harboring KRAS G12D mutant cultured as 2D cells assessed as reduction in cell viability incubated for 120 hrs by CellTiter-Glo luminescence assay. The format is functional, cell-based. The settings on record: ASPC1, 120 h.
A short description of series [2]: Kinetic solubility of compound in PBS at pH 5.0 measured after 5 hrs by UV analysis. Type of series: physicochemical. The conditions noted are these: read-out: Kinetic_solubility.
The next series concerns Hs 766. Kind of series: Cytotoxicity against human Hs766T cells harboring KRAS Q61H mutant cultured as 2D cells assessed as inhibition of cell proliferation incubated for 120 hrs by CellTiter-Glo luminescence assay. Type of series: functional, cell-based.
Another series relates to HPAF-II. Kind of series: Antitumor activity against human HPAF-II cells harboring wildtype KRAS/KRAS G12D mutant xenografted in female BALB/c mouse model assessed as reduction in tumor volume administered orally as once daily dose for 28 days. Type of series: functional, cell-based. The conditions noted are these: dose 3-25 mg/kg, route po, time 28.0 day.

Turning to `CCn1c(-c2cc(N3CCN(C)CC3)cnc2[C@H](C)OC)c2c3cc(ccc31)-c1csc(n1)C[C@H](NC(=O)[C@H]1C[C@@H]1C)C(=O)N1CCC[C@H](N1)C(=O)OCC(C)(C)C2`, in series [1], it took 48 nM to reach half-maximal inhibition (IC50). Also, the EC50 in the series with ASPC1 was found to be 3.1 nM. In addition, in series [2], the solubility kinetic at 5 h is more than 100 µM. In the series with Hs 766, the outcome was Active. The Activity entry with HPAF-II was “Dose-dependent-effect”.
